The structures appear in SMILES notation. Read-outs that look alike come from different tables or passages of the source.

This passage reports EC50 results from patent publication US11390616B2 (BRISTOL-MYERS SQUIBB COMPANY, priority 2015, dated 2022).

This experiment concerns the target T1, human APJ receptor (Homo sapiens, UniProt P35414).
T1 construct: expressed in transfected cells; host or cells: HEK293
T1 sequence (P35414 1-380): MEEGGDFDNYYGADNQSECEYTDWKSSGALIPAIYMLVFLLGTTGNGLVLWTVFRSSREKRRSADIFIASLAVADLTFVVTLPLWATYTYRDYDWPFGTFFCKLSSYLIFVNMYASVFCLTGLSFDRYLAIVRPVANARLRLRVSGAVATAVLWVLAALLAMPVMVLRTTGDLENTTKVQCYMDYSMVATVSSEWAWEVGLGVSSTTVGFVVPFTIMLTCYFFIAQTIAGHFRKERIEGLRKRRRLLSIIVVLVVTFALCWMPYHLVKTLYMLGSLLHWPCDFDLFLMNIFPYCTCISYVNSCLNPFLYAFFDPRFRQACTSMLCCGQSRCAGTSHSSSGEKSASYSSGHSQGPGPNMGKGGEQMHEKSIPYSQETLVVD
The experiment can be described thus: Intracellular cAMP accumulation assay (APJ hcAMP, HTRF). Format: cell-based. To be noted: HEK293 cells stably expressing human APJ receptor, inhibition of forskolin-mediated cAMP production. As to the method:
Intracellular cAMP Accumulation Assay
HEK293 cells stably expressing human APJ receptor were used to assess the activity of compounds. Cultured cells were detached and resuspended in the cAMP Homogeneous Time-Resolved Fluorescence (HTRF) assay buffer (Cisbio cat; #62AM4PEJ). The assay was performed in 384-well assay plates (Perkin-Elmer; cat #6008289) according to assay protocol provided by the manufacturer. Serial dilutions of a compound together with assay buffer containing […] IBMX and 2 μM forskolin were added to each well containing 5,000 cells and incubated for 30 minutes at room temperature. Subsequently, cAMP D2 reagent was added in the lysis buffer followed by the EuK antibody (Cisbio; cat #62AM4PEJ) and incubated for 60 min. The fluorescence emission ratio was measured using fluorometer. The intracellular cAMP concentrations (compound-stimulated inhibition of forskolin-mediated cAMP production) were calculated by extrapolation from a standard curve using known cAMP concentrations. The EC50 values were obtained by fitting the data to a sigmoidal concentration-response curve with variable slope. The maximal achievable inhibition of forskolin-induced cAMP levels (Ymax) for each compound was expressed as relative percentage of inhibition attained using pyroglutamated apelin-13 ((Pyr1)apelin-13) peptide, which was set to 100%.
The examples disclosed below were tested in the APJ in vitro assays described above and were found having human APJ cyclic AMP (hcAMP) activity. The EC50 value of each compound is presented at the end of the example description.
The biological activity of the exemplified compounds of this invention determined by the assay described above is shown at the end of each example.
(In general: cAMP levels reflect the balance of adenylyl cyclase and phosphodiesterase activity.)

Setting [1] is: read-out: APJ cAMP Potency range.

Regarding `CCc1cccc(CC)c1-n1c(-c2nc(C)cs2)nc(=O)c(Cc2ccc(-c3ccncc3C)c(F)c2)c1O` [Example 75, 1-(2,6-diethylphenyl)-5-{[3-fluoro-4-(3-methylpyridin-4-yl)phenyl]methyl}-6-hydroxy-2-(4-methyl-1,3-thiazol-2-yl)-1,4-dihydropyrimidin-4-one], under setting [1], the EC50 is 0.01 to 10 nM.
Consider `CCc1cccc(CC)c1-n1c(-c2ccn(CC)n2)nc(=O)c(Cc2ccc(-c3ccc(F)nc3C)c(F)c2)c1O` [Example 80, 1-(2,6-diethylphenyl)-2-(1-ethyl-1H-pyrazol-3-yl)-5-{[3-fluoro-4-(6-fluoro-2-methylpyridin-3-yl)phenyl]methyl}-6-hydroxy-1,4-dihydropyrimidin-4-one], for which the EC50 under setting [1] fell in the range of 0.01 to 10 nM.
As for `CCCCc1nc(O)c(Cc2ccc(-c3cccnc3OC)cc2)c(=O)n1-c1c(OC)cccc1OC` [Example 48, 2-butyl-3-(2,6-dimethoxyphenyl)-6-hydroxy-5-{[4-(2-methoxypyridin-3-yl)phenyl]methyl}-3,4-dihydropyrimidin-4-one], under setting [1], the EC50 lay in the range of 0.01 to 10 nM.
With `CCc1cccc(CC)c1-n1c(-c2ccn(C)n2)nc(=O)c(Cc2ccc(-c3ccncc3C)c(F)c2)c1O` [Example 70, 1-(2,6-diethylphenyl)-5-{[3-fluoro-4-(3-methylpyridin-4-yl)phenyl]methyl}-6-hydroxy-2-(1-methyl-1H-pyrazol-3-yl)-1,4-dihydropyrimidin-4-one], under setting [1], the EC50 lay within 0.01 to 10 nM.
Same read-out and setting: under `COc1cccc(OC)c1-n1c(CCC(C)C)nc(O)c(Cc2ccc(NC(C)=O)cc2)c1=O` [Example 16, N-(4-{[1-(2,6-dimethoxyphenyl)-4-hydroxy-2-(3-methylbutyl)-6-oxo-1,6-dihydropyrimidin-5-yl]methyl}phenyl)acetamide] stands 10 to 100 nM; under `CCCCc1nc(=O)c(Cc2ccc(C3CC3)cc2)c(O)n1[C@@H](CC)c1cccc(C#N)c1` [Example 102, 3-[(1S)-1-{2-butyl-5-[(4-cyclopropylphenyl)methyl]-6-hydroxy-4-oxo-1,4-dihydropyrimidin-1-yl}propyl]benzonitrile], 10 to 100 nM; under `CCc1cccc(CC)c1-n1c(-c2ccn(C)n2)nc(=O)c(Cc2ccc(-c3ccc(F)nc3C)c(F)c2)c1O` [Example 69, 1-(2,6-diethylphenyl)-5-{[3-fluoro-4-(6-fluoro-2-methylpyridin-3-yl)phenyl]methyl}-6-hydroxy-2-(1-methyl-1H-pyrazol-3-yl)-1,4-dihydropyrimidin-4-one], 0.01 to 10 nM.
Still for that read-out and setting: the result for `CCCCc1nc(O)c(Cc2nc(-c3ccc(C(F)(F)F)cc3)no2)c(=O)n1-c1c(OC)cccc1OC` [Example 20, 2-butyl-3-(2,6-dimethoxyphenyl)-6-hydroxy-5-({3-[4-(trifluoromethyl)phenyl]-1,2,4-oxadiazol-5-yl}methyl)-3,4-dihydropyrimidin-4-one] reads 0.01 to 10 nM.
Same read-out and setting: the result for `CCCCc1nc(O)c(Cc2cnc(-c3ccc(Cl)cc3)s2)c(=O)n1-c1c(OC)cccc1OC` [Example 26, 2-butyl-5-{[2-(4-chlorophenyl)-1,3-thiazol-5-yl]methyl}-3-(2,6-dimethoxyphenyl)-6-hydroxy-3,4-dihydropyrimidin-4-one] reads 0.01 to 10 nM; that for `CCOCc1nc(O)c(Cc2ccn(-c3ccc(Cl)cc3)n2)c(=O)n1-c1c(OC)cccc1OC` [Example 31, 5-{[1-(4-chlorophenyl)-1H-pyrazol-3-yl]methyl}-3-(2,6-dimethoxyphenyl)-2-(ethoxymethyl)-6-hydroxy-3,4-dihydropyrimidin-4-one], 10 to 100 nM.
For the compound `COc1cccc(OC)c1-n1c(C2CCCC2)nc(O)c(Cc2ccc(-n3cc(F)ccc3=O)cc2)c1=O` [Example 51, 2-cyclopentyl-3-(2,6-dimethoxyphenyl)-5-{[4-(5-fluoro-2-oxo-1,2-dihydropyridin-1-yl)phenyl]methyl}-6-hydroxy-3,4-dihydropyrimidin-4-one], the EC50 under setting [1] was in the range of 0.01 to 10 nM.
The same measure, in the same setting: the result for `COc1cccc(OC)c1-n1c(COC(C)C)nc(O)c(Cc2ccc(-n3cc(Cl)ccc3=O)cc2)c1=O` [Example 60, 5-{[4-(5-chloro-2-oxo-1,2-dihydropyridin-1-yl)phenyl]methyl}-3-(2,6-dimethoxyphenyl)-6-hydroxy-2-[(propan-2-yloxy)methyl]-3,4-dihydropyrimidin-4-one] reads 0.01 to 10 nM.
Still for that read-out and setting: under `COc1cccc(OC)c1-n1c(CCC(C)C)nc(O)c(Cc2ccc(-n3cc(Cl)ccc3=O)cc2)c1=O` [Example 53, 5-{[4-(5-chloro-2-oxo-1,2-dihydropyridin-1-yl)phenyl]methyl}-3-(2,6-dimethoxyphenyl)-6-hydroxy-2-(3-methylbutyl)-3,4-dihydropyrimidin-4-one] stands 0.01 to 10 nM; under `Cc1ncccc1-c1ccc(Cc2c(O)n([C@H](c3cc(F)cc(F)c3)C(C)C)c(COC(C)C)nc2=O)cc1` [Example 115, 1-[(1S)-1-(3,5-difluorophenyl)-2-methylpropyl]-6-hydroxy-5-{[4-(2-methylpyridin-3-yl)phenyl]methyl}-2-[(propan-2-yloxy)methyl]-1,4-dihydropyrimidin-4-one], 0.01 to 10 nM.
Same read-out and setting: the result for `CCc1cccc(CC)c1-n1c(-c2nc(C)cs2)nc(=O)c(Cc2ccc(-c3ccc(F)nc3C)c(F)c2)c1O` [Example 79, 1-(2,6-diethylphenyl)-5-{[3-fluoro-4-(6-fluoro-2-methylpyridin-3-yl)phenyl]methyl}-6-hydroxy-2-(4-methyl-1,3-thiazol-2-yl)-1,4-dihydropyrimidin-4-one] reads 0.01 to 10 nM; that for `CC[C@@H](c1cc(F)cc(F)c1)n1c(CCC2CC2)nc(=O)c(Cc2ccc(-c3ccnc(F)c3C)cc2)c1O` [Example 113, 2-(2-cyclopropylethyl)-1-[(1S)-1-(3,5-difluorophenyl)propyl]-5-{[4-(2-fluoro-3-methylpyridin-4-yl)phenyl]methyl}-6-hydroxy-1,4-dihydropyrimidin-4-one], 0.01 to 10 nM.
As to `CCOCc1nc(O)c(Cc2ccc(-n3ccccc3=O)cc2)c(=O)n1-c1c(OC)cccc1OC` [Example 1], under “read-out: Human APJ cAMP EC50 potency range”, the EC50 is 100 to 300 nM.
On to `CC[C@@H](c1cc(F)cc(F)c1)n1c(-c2ccn(CC)n2)nc(=O)c(Cc2ccc(-c3ccncc3C)cc2)c1O` [Example 136, 1-[(1S)-1-(3,5-difluorophenyl)propyl]-2-(1-ethyl-1H-pyrazol-3-yl)-6-hydroxy-5-{[4-(3-methylpyridin-4-yl)phenyl]methyl}-1,4-dihydropyrimidin-4-one], for which, under setting [1], the EC50 is 0.01 to 10 nM.
On the same count and under the same terms, under `CC[C@@H](c1cc(F)cc(F)c1)n1c(COC(C)C)nc(=O)c(Cc2ccc(-c3ccncc3C)cc2)c1O` [Example 114, 1-[(1S)-1-(3,5-difluorophenyl)propyl]-6-hydroxy-5-{[4-(3-methylpyridin-4-yl)phenyl]methyl}-2-[(propan-2-yloxy)methyl]-1,4-dihydropyrimidin-4-one] stands 0.01 to 10 nM.
Turning to `CCCCc1nc(O)c(Cc2ccc(OC)cc2)c(=O)n1-c1c(OC)cccc1OC` [Example 2, 2-butyl-3-(2,6-dimethoxyphenyl)-6-hydroxy-5-[(4-methoxyphenyl)methyl]-3,4-dihydropyrimidin-4-one], the EC50 under setting [1] is 10 to 100 nM.
As for `CCc1cccc(CC)c1-n1c(-c2ccn(CC)n2)nc(=O)c(Cc2ccc(-c3ccncc3C)c(F)c2)c1O` [Example 76, 1-(2,6-diethylphenyl)-2-(1-ethyl-1H-pyrazol-3-yl)-5-{[3-fluoro-4-(3-methylpyridin-4-yl)phenyl]methyl}-6-hydroxy-1,4-dihydropyrimidin-4-one], under setting [1], the EC50 is 0.01 to 10 nM.
On the same count and under the same terms, under `CCCCc1nc(O)c(Cc2ccc(Cn3cccn3)cc2)c(=O)n1-c1c(OC)cccc1OC` [Example 27, 2-butyl-3-(2,6-dimethoxyphenyl)-6-hydroxy-5-{[4-(1H-pyrazol-1-ylmethyl)phenyl]methyl}-3,4-dihydropyrimidin-4-one] stands 0.01 to 10 nM; under `CCCCc1nc(=O)c(Cc2ccc(-c3ccnc(F)c3C)cc2)c(O)n1-c1c(CC)cccc1CC` [Example 66, 2-butyl-1-(2,6-diethylphenyl)-5-{[4-(2-fluoro-3-methylpyridin-4-yl)phenyl]methyl}-6-hydroxy-1,4-dihydropyrimidin-4-one], 0.01 to 10 nM; under `CCc1cccc(CC)c1-n1c(-c2ccn(CC(C)C)n2)nc(=O)c(Cc2ccc(-c3cccn(C)c3=O)c(F)c2)c1O` [Example 90, 1-(2,6-diethylphenyl)-5-{[3-fluoro-4-(1-methyl-2-oxo-1,2-dihydropyridin-3-yl)phenyl]methyl}-6-hydroxy-2-[1-(2-methylpropyl)-1H-pyrazol-3-yl]-1,4-dihydropyrimidin-4-one], 100 to 300 nM.
